{"source": "patent US8846570B2", "about": "“Herbicidal compositions comprising 4-amino-3-chloro-5-fluoro-6-(4-chloro-2-fluoro-3-methoxyphenyl)pyridine-2-carboxylic acid or a derivative thereof and microtubule inhibiting herbicides” (Dow AgroSciences LLC, priority 2012, dated 2014)", "test_in_all_cases": "Postemergence foliar-applied, direct seeded rice, greenhouse: visual weed control", "type_in_all_cases": "in vivo", "key": {"[1]": {"system": "Brachiaria platyphylla (Griseb.) Nash (BRAPP)", "details": "21 DAA", "excerpt": "(§1) Seeds or nutlets of the desired test plant species were planted in a soil matrix prepared by mixing a loam or sandy loam soil (e.g., 28.6 percent silt, 18.8 percent clay, and 52.6 percent sand, with a pH of about 5.8 and an organic matter content of about 1.8 percent) and calcareous grit in an 80 to 20 ratio. The soil matrix was contained in plastic pots with a volume of 1 quart and a surface area of 83.6 cm^2. When required to ensure good germination and healthy plants, a fungicide treatment and/or other chemical or physical treatment was applied. The plants were grown for 8-22 days in a greenhouse with an approximate 14 h photoperiod which was maintained at about 29° C. during the day and 26° C. during the night. Nutrients (Peters Excel® 15-5-15 5-Ca 2-Mg and iron chelate) were applied in the irrigation solution as needed and water was added on a regular basis. Supplemental lighting was provided with overhead metal halide 1000-Watt lamps as necessary. The plants were employed for testing when they reached the first through fourth true leaf stage.\n(§2) Treatments consisted of the acid or esters of 4-amino-3-chloro-5-fluoro-6-(4-chloro-2-fluoro-3-methoxy-phenyl)pyridine-2-carboxylic acid (Compound A), each formulated as an SC (suspension concentrate), and various herbicidal components alone and in combination. Forms of compound A were applied on an acid equivalent basis.\n(§3) Treatment requirements were calculated based upon the rates being tested, the concentration of active ingredient or acid equivalent in the formulation, and a 12 mL application volume at a rate of 187 L/ha.\n(§4) For treatments comprised of formulated compounds, measured amounts of compounds were placed individually in 25 mL glass vials and diluted in a volume of 1.25% (v/v) Agri-Dex® crop oil concentrated to obtain 12× stock solutions. […] Application solutions were prepared by adding an appropriate amount of each stock solution (e.g., 1 mL) and diluted to the appropriate final concentrations with the addition of 10 mL of an aqueous mixture of 1.25% (v/v) crop oil concentrate so that the final spray solutions contained 1.25+/−0.05% (v/v) crop oil concentrate.\n(§5) As required, additional water and/or 97:3 v/v acetone/DMSO was added to individual application solutions so that the final acetone and DMSO concentrations of the application solutions being compared were 8.1% and 0.25%, respectively.\n(§6) All stock solutions and applications solutions were visually inspected for compound compatibility prior to application. Spray solutions were applied to the plant material with an overhead Mandel track sprayer equipped with a 8002E nozzles calibrated to deliver 187 L/ha over an application area of 0.503 m^2 at a spray height of 18 to 20 inches (46 to 50 cm) above average plant canopy height. Control plants were sprayed in the same manner with the solvent blank.\n(§7) The treated plants and control plants were placed in a greenhouse as described above and watered by sub-irrigation to prevent wash-off of the test compounds. After approximately 3 weeks, the condition of the test plants as compared with that of the untreated plants was determined visually and scored on a scale of 0 to 100 percent where 0 corresponds to no injury or growth inhibition and 100 corresponds to complete kill.\n(§8) Colby's equation was used to determine the herbicidal effects expected from the mixtures (Colby, S. R. 1967. Calculation of the synergistic and antagonistic response of herbicide combinations. Weeds 15:20-22.).\n(§9) The following equation was used to calculate the expected activity of mixtures containing two active ingredients, A and B: Expected=A+B−(A×B/100)"}, "[2]": {"system": "Digitaria sanguinalis (L.) Scop. (DIGSA)", "details": "19 DAA", "excerpt": "as §1, §2, §3, §4, §5, §6, §7, §8, §9"}, "[3]": {"system": "Echinochloa colona (L.) Link (ECHCO)", "excerpt": "as §1, §2, §3, §4, §5, §6, §7, §8, §9"}, "[4]": {"system": "Echinochloa crusgalli (L.) Beauv. (ECHCG)", "experimental": "as §1, with “When required to ensure good germination and healthy plants, a fungicide treatment and/or other chemical or physical treatment was applied.” left out\n(§10) Forms of compound A were applied on an acid equivalent basis.\nas §4, §5, §6, §7, §8, §9"}, "[5]": {"system": "Ipomoea hederacea Jacq. (IPOHE)", "details": "post-emergence, read-out: Visual Weed Control (%) Obs", "experimental": "as §1, with “When required to ensure good germination and healthy plants, a fungicide treatment and/or other chemical or physical treatment was applied.” left out\nas §10, §4, §5, §6, §7, §8, §9"}}, "note": "Like-named read-outs stand apart in the source and are kept apart here.", "data": [{"smiles": "COc1c(Cl)ccc(-c2nc(C(=O)O)c(Cl)c(N)c2F)c1F", "note": "[Compound A Acid, 4-amino-3-chloro-6-(4-chloro-2-fluoro-3-methoxyphenyl)-5-fluoropyridine-2-carboxylic acid]", "values": [{"measurement": "Visual Weed Control (%) Obs", "setting": "[1]; 8.75 g ae/ha", "value": 60, "unit": "%"}, {"measurement": "Visual Weed Control (%) Obs", "setting": "[2]; 4.38 g ae/ha", "value": 30, "unit": "%"}, {"measurement": "Visual Weed Control (%) Obs", "setting": "[3]; 21 DAA, 4.38 g ae/ha", "value": 60, "unit": "%"}, {"measurement": "Visual Weed Control (%) Obs", "setting": "[3]; 21 DAA, 8.75 g ae/ha", "value": 90, "unit": "%"}, {"measurement": "Visual Weed Control (%) Obs", "setting": "[4]; 19 DAA, 4.38 g ae/ha", "value": 60, "unit": "%"}, {"measurement": "pest or weed control at 4.38 g/ha", "setting": "[5]; 456 h, 19 DAA, 4.38 g ae/ha", "value": 0, "unit": "%"}, {"measurement": "pest or weed control at 8.75 g/ha", "setting": "[5]; 456 h, 19 DAA, 8.75 g ae/ha", "value": 10, "unit": "%"}, {"measurement": "pest or weed control at 35 g/ha", "setting": "[5]; 504 h, 21 DAA, 35 g ae/ha", "value": 45, "unit": "%"}, {"measurement": "pest or weed control at 8 g/ha", "setting": "[5]; 528 h, 22 DAA, 8 g ae/ha", "value": 25, "unit": "%"}, {"measurement": "pest or weed control at 16 g/ha", "setting": "[5]; 528 h, 22 DAA, 16 g ae/ha", "value": 35, "unit": "%"}, {"measurement": "pest or weed control at 32 g/ha", "setting": "[5]; 528 h, 22 DAA, 32 g ae/ha", "value": 40, "unit": "%"}]}, {"smiles": "COc1c(Cl)ccc(-c2nc(C(=O)OCc3ccccc3)c(Cl)c(N)c2F)c1F", "note": "[Compound A Benzyl Ester, benzyl ester of 4-amino-3-chloro-5-fluoro-6-(4-chloro-2-fluoro-3-methoxy-phenyl)pyridine-2-carboxylic acid]", "values": [{"measurement": "Visual Weed Control (%) Obs", "setting": "[1]; 4.38 g ae/ha", "value": 70, "unit": "%"}, {"measurement": "Visual Weed Control (%) Obs", "setting": "[2]; 4.38 g ae/ha", "value": 35, "unit": "%"}, {"measurement": "Visual Weed Control (%) Obs", "setting": "[2]; 8.75 g ae/ha", "value": 50, "unit": "%"}, {"measurement": "Visual Weed Control (%) Obs", "setting": "[3]; 19 DAA, 4.38 g ae/ha", "value": 65, "unit": "%"}, {"measurement": "Visual Weed Control (%) Obs", "setting": "[3]; 19 DAA, 8.75 g ae/ha", "value": 90, "unit": "%"}, {"measurement": "Visual Weed Control (%) Obs", "setting": "[4]; 19 DAA, 4.38 g ae/ha", "value": 55, "unit": "%"}, {"measurement": "Visual Weed Control (%) Obs", "setting": "[4]; 19 DAA, 8.75 g ae/ha", "value": 85, "unit": "%"}, {"measurement": "Visual Weed Control (%) Obs", "setting": "[4]; 20 DAA, 4.38 g ae/ha", "value": 40, "unit": "%"}, {"measurement": "Visual Weed Control (%) Obs", "setting": "[4]; 20 DAA, 8.75 g ae/ha", "value": 70, "unit": "%"}, {"measurement": "pest or weed control at 4.38 g/ha", "setting": "[5]; 456 h", "value": 0, "unit": "%"}, {"measurement": "pest or weed control at 8.75 g/ha", "setting": "[5]; 456 h", "value": 0, "unit": "%"}, {"measurement": "pest or weed control at 8 g/ha", "setting": "[5]; 480 h", "value": 20, "unit": "%"}, {"measurement": "pest or weed control at 8.75 g/ha", "setting": "[5]; 480 h", "value": 10, "unit": "%"}, {"measurement": "pest or weed control at 16 g/ha", "setting": "[5]; 480 h", "value": 40, "unit": "%"}, {"measurement": "pest or weed control at 17.5 g/ha", "setting": "[5]; 480 h", "value": 25, "unit": "%"}, {"measurement": "pest or weed control at 4.38 g/ha", "setting": "[5]; 504 h", "value": 10, "unit": "%"}, {"measurement": "pest or weed control at 8.75 g/ha", "setting": "[5]; 504 h", "value": 10, "unit": "%"}, {"measurement": "pest or weed control at 17.5 g/ha", "setting": "[5]; 504 h", "value": 25, "unit": "%"}, {"measurement": "pest or weed control at 8 g/ha", "setting": "[5]; 528 h", "value": 10, "unit": "%"}, {"measurement": "pest or weed control at 16 g/ha", "setting": "[5]; 528 h", "value": 10, "unit": "%"}, {"measurement": "pest or weed control at 32 g/ha", "setting": "[5]; 528 h", "value": 35, "unit": "%"}]}, {"smiles": "CSC(=O)c1c(C(F)F)nc(C(F)(F)F)c(C(=O)SC)c1CC(C)C", "note": "[Dithiopyr, S,S′-dimethyl-2-(difluoromethyl)-4-(2-methylpropyl)-6-(trifluoromethyl)-3,5-pyridinedicarbothioate]", "values": [{"measurement": "Visual Weed Control (%) Obs", "setting": "[1]; 35 g ai/ha", "value": 0, "unit": "%"}, {"measurement": "Visual Weed Control (%) Obs", "setting": "[1]; 70 g ai/ha", "value": 0, "unit": "%"}, {"measurement": "Visual Weed Control (%) Obs", "setting": "[1]; 140 g ai/ha", "value": 0, "unit": "%"}, {"measurement": "Visual Weed Control (%) Obs", "setting": "[3]; 21 DAA, 35 g ai/ha", "value": 0, "unit": "%"}, {"measurement": "Visual Weed Control (%) Obs", "setting": "[3]; 21 DAA, 70 g ai/ha", "value": 0, "unit": "%"}, {"measurement": "Visual Weed Control (%) Obs", "setting": "[3]; 21 DAA, 140 g ai/ha", "value": 0, "unit": "%"}, {"measurement": "pest or weed control at 35 g/ha", "setting": "[5]; 504 h, 21 DAA, 35 g ai/ha", "value": 10, "unit": "%"}]}, {"smiles": "CCC(CC)Nc1c([N+](=O)[O-])cc(C)c(C)c1[N+](=O)[O-]", "note": "[Pendimethalin, N-(1-ethylpropyl)-3,4-dimethyl-2,6-dinitrobenzenamine, reference compound]", "values": [{"measurement": "Visual Weed Control (%) Obs", "setting": "[2]; 140 g ai/ha", "value": 0, "unit": "%"}, {"measurement": "Visual Weed Control (%) Obs", "setting": "[2]; 280 g ai/ha", "value": 0, "unit": "%"}, {"measurement": "Visual Weed Control (%) Obs", "setting": "[3]; 19 DAA, 140 g ai/ha", "value": 0, "unit": "%"}, {"measurement": "Visual Weed Control (%) Obs", "setting": "[3]; 19 DAA, 280 g ai/ha", "value": 0, "unit": "%"}, {"measurement": "Visual Weed Control (%) Obs", "setting": "[3]; 19 DAA, 560 g ai/ha", "value": 0, "unit": "%"}, {"measurement": "Visual Weed Control (%) Obs", "setting": "[4]; 19 DAA, 140 g ai/ha", "value": 0, "unit": "%"}, {"measurement": "Visual Weed Control (%) Obs", "setting": "[4]; 19 DAA, 280 g ai/ha", "value": 0, "unit": "%"}, {"measurement": "Visual Weed Control (%) Obs", "setting": "[4]; 19 DAA, 560 g ai/ha", "value": 10, "unit": "%"}, {"measurement": "Visual Weed Control (%) Obs", "setting": "[4]; 21 DAA, 1120 g ai/ha", "value": 18, "unit": "%"}, {"measurement": "pest or weed control at 140 g/ha", "setting": "[5]; 456 h, 19 DAA, 140 g ai/ha", "value": 0, "unit": "%"}, {"measurement": "pest or weed control at 280 g/ha", "setting": "[5]; 456 h, 19 DAA, 280 g ai/ha", "value": 0, "unit": "%"}, {"measurement": "pest or weed control at 560 g/ha", "setting": "[5]; 456 h, 19 DAA, 560 g ai/ha", "value": 0, "unit": "%"}, {"measurement": "pest or weed control at 1120 g/ha", "setting": "[5]; 504 h, 21 DAA, 1120 g ai/ha", "value": 13, "unit": "%"}]}]}
